The values that follow come from US20240285670A1, “THERAPEUTIC TREATMENT OF TUMORS BY BLOCKING THE HEME SYNTHESIS-EXPORT AXIS” (Università degli Studi di Torino, priority 2021, published 2024).

The subject of assay [1] is Caco2 cells. Put plainly: Heme content (fluorescence assay) in Caco2 cells. It is filed as cell-based, human. The following applies: FLVCR1a-silenced Caco2 cells, 5 mM 5-ALA+0.5 mM SA. The method, then:
(A) Heme content in Caco2 cells treated with 5 mM 5-ALA (black bars and white bars) or with 5 mM 5-ALA+0.5 mM SA (light grey outlined bars) for the indicated time points. […] Values are expressed as relative fluorescence intensity. Data represent mean±SEM, n=2. For statistical analyses, a two-way analysis of variance was used, followed by the Bonferroni correction for multiple group comparisons; **=p<0.01, ***=p<0.001. 5-ALA, 5-aminolevulinic acid; SA, succinylacetone. (B) Intracellular 5-ALA levels. […] Values are expressed as peak area/μg proteins. Data represent mean±SEM of n=4 wells pooled from two independent experiments. For statistical analyses, an unpaired Student's t-test was used; **=p<0.01. 5-ALA, 5-aminolevulinic acid. […] Values are expressed as peak area/μg proteins. […] Transcript abundance, normalized to beta-actin mRNA expression, is expressed as a fold increase over a calibrator sample. […] Band intensities were measured by densitometry and normalized to vinculin expression. […]
Intracellular heme concentration was measured using a fluorescence assay, as previously reported (Sinclair et al., 2001). […] Fluorescence (wavelength: excitation 405 nm-emission 660-720 nm) of the resultant protoporphyrin was assessed on a Glomax Multi Detection System (Promega Corporation, Madison WI, USA).
The endogenous protoporphyrin content (measured in parallel unheated samples in oxalic acid) was subtracted. […]

The subject of assay [2] is FLVCR1a-overexpressing Caco2 cells. Put plainly: TCA cycle flux in Caco2 cells overexpressing FLVCR1a. The assay is classed as cell-based, human. The method, then: (A) TCA cycle flux in Caco2 cells expressing a scramble shRNA untreated or treated with 25 μM hemin for 2 hours. Moreover, the TCA cycle flux of untreated FLVCR1a-silenced Caco2 cells is reported for comparison. Results are expressed as pmol CO2/h/mg protein. Data represent mean±SEM, n=3. For statistical analyses, an unpaired Student's t-test was used to compare the two matched groups; *=p<0.05, ***=p<0.001. […] Results are expressed as pmol CO2/h/mg protein. Data represent mean±SEM, n=3. For statistical analyses, an unpaired Student's t-test was used; *=p<0.05, **=p<0.01. (C) TCA cycle flux in Caco2 cells overexpressing FLVCR1a (indicated as FLVCR1a+) are compared to cells stably transduced with an empty vector. Moreover, the TCA cycle flux of FLVCR1a-overexpressing Caco2 cells treated with 25 μM hemin or 0.5 mM SA for 2 hours is reported. Results are expressed as pmol CO2/h/mg protein. Data represent mean±SEM, n=3. For statistical analyses, an unpaired Student's t-test was used to compare the two matched groups; *=p<0.05, **=p<0.01. SA, succinylacetone. […]
(§1) The glucose flux through TCA cycle was measured by radiolabeling cells with 2 μCi/ml [6-^14C]-glucose (55 mCi/mmol; PerkinElmer, Waltham, MA, USA, catalog n° NEC045X). […] The amount of glucose transformed into CO2 through the TCA cycle was calculated as described (Riganti et al., 2004) and expressed as pmoles CO2/h/mg cell proteins.

For the next assay, the system named is lung tumor LLC cells. Put plainly: LLC cell viability (CellTiter-Fluor) as readout of proliferation. The assay is classed as cell-based, murine. The following applies: 0.5 mM SA at day 0, no medium refresh.
The next assay deals with tumor cell. The note with it: background art; cited from earlier work.
Assay [3] has as its system Caco2 cells. Put plainly: TCA cycle flux in Caco2 cells. The assay is classed as cell-based, human. The note with it: control (scramble shRNA) Caco2 cells, 25 μM hemin for 2 hours.
Description: TCA cycle flux is reported in the centre of the figure and expressed as pmol CO2/h/mg protein. Data represent mean±SEM, n=3. For statistical analyses, an unpaired Student's t-test was used. **=p<0.01. Moreover, TCA cycle enzymes activities are reported in boxes and expressed as mU/mg mitochondrial proteins. Data represent mean±SEM, n=3. For statistical analyses, an unpaired Student's t-test was used; *=p<0.05, ***=p<0.001. […] Results are expressed as pmol CO2/h/mg protein. Data represent mean±SEM, n=3. For statistical analyses, an unpaired Student's t-test was used; *=p<0.05, **=p<0.01.
(A) TCA cycle flux in Caco2 cells expressing a scramble shRNA untreated or treated with 25 μM hemin for 2 hours. Moreover, the TCA cycle flux of untreated FLVCR1a-silenced Caco2 cells is reported for comparison. Results are expressed as pmol CO2/h/mg protein. Data represent mean±SEM, n=3. […] Results are expressed as pmol CO2/h/mg protein. […] Results are expressed as pmol CO2/h/mg protein. […]
as §1

Turning to `CC(=O)CC(=O)CCC(=O)O` [SA, 4-6 Dioxoheptanoic acid], the “accumulation of de-novo synthesized heme” value with Caco2 cells [1] is “blunted”. The “reduction of the TCA cycle flux in FLVCR1a-overexpressing cells” value in assay [2] (0.5 mM SA for 2 hours) is given as “reverted”. In the assay on lung tumor LLC cells, the “cell proliferation (cell viability)” value is given as “effects on cell proliferation were similar”. Besides, the “tumor cell survival and proliferation” value in the assay with tumor cell is “reduce tumor cell survival and proliferation”.
For “Hemin Ferriprotoporphyrin IX chloride [reference compound]”, the TCA cycle flux entry in the assay on Caco2 cells [3] is listed as “increased TCA cycle flux”. Further, the “reduction of the TCA cycle flux in FLVCR1a-overexpressing cells” value in assay [2] (25 μM hemin for 2 hours) is given as “reverted”.
